Tests used:
Assay in all cases: relative viability (nuclei count vs DMSO), 5 days (fraction); higher = more cells survive
Ibrutinib + Crizotinib = compound: C=CC(=O)N1CCC[C@@H](n2nc(-c3ccc(Oc4ccccc4)cc3)c3c(N)ncnc32)C1 [Ibrutinib] + C[C@@H](Oc1cc(-c2cnn(C3CCNCC3)c2)cnc1N)c1c(Cl)ccc(F)c1Cl [Crizotinib] (partner 1 µM)
In short: (§1)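 For relative viability, nuclei counts in treated wells were divided by those in vehicle wells. Lung cancer cell lines had been pin-tool dosed in 1536-well plates the day after seeding and cultured for 5 days, then fixed and stained in one step (final 0.05% Triton X-100, 1% formaldehyde, 1 ug/ml Hoechst) and imaged at 4×. Doses were one drug alone or a fixed anchor-drug dose plus five library-drug doses (not always all listed) in √10 steps, and values are duplicate-plate medians.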

Ibrutinib + Phenformin = compound: C=CC(=O)N1CCC[C@@H](n2nc(-c3ccc(Oc4ccccc4)cc3)c3c(N)ncnc32)C1 [Ibrutinib] + N=C(N)NC(=N)NCCc1ccccc1 [Phenformin] (partner 250 µM)
In short: as §1

Ibrutinib + Olaparib = compound: C=CC(=O)N1CCC[C@@H](n2nc(-c3ccc(Oc4ccccc4)cc3)c3c(N)ncnc32)C1 [Ibrutinib] + O=C(c1cc(Cc2n[nH]c(=O)c3ccccc23)ccc1F)N1CCN(C(=O)C2CC2)CC1 [Olaparib] (partner 8 µM)
In short: as §1

PAC-1 + Bortezomib = compound: C=CCc1cccc(/C=N/NC(=O)CN2CCN(Cc3ccccc3)CC2)c1O [PAC-1] + CC(C)C[C@H](NC(=O)[C@H](Cc1ccccc1)NC(=O)c1cnccn1)B(O)O [Bortezomib] (partner 0.002 µM)
In short: as §1

Cell Line | relative viability (Ibrutinib + Crizotinib; first compound 0.01581 µM) | relative viability (Ibrutinib + Crizotinib; first compound 0.05 µM) | relative viability (Ibrutinib + Crizotinib; first compound 0.1581 µM) | relative viability (Ibrutinib + Crizotinib; first compound 0.5 µM) | relative viability (Ibrutinib + Phenformin; first compound 0.005 µM) | relative viability (Ibrutinib + Phenformin; first compound 0.01581 µM) | relative viability (Ibrutinib + Phenformin; first compound 0.05 µM) | relative viability (Ibrutinib + Phenformin; first compound 0.1581 µM) | relative viability (Ibrutinib + Phenformin; first compound 0.5 µM) | relative viability (Ibrutinib + Olaparib; first compound 0.01581 µM) | relative viability (Ibrutinib + Olaparib; first compound 0.05 µM) | relative viability (Ibrutinib + Olaparib; first compound 0.1581 µM) | relative viability (Ibrutinib + Olaparib; first compound 0.5 µM) | relative viability (PAC-1 + Bortezomib; first compound 0.02 µM) | relative viability (PAC-1 + Bortezomib; first compound 0.06325 µM) | relative viability (PAC-1 + Bortezomib; first compound 0.2 µM) | relative viability (PAC-1 + Bortezomib; first compound 2 µM) | relative viability (Ibrutinib + Olaparib; first compound 0.005 µM) | relative viability (Ibrutinib + Crizotinib; first compound 0.005 µM)
NCI-H1355 | 0.957 | 0.971 | 1.15 | 0.827 | 0.419 | 0.463 | 0.485 | 0.469 | 0.427 | 0.664 | 0.77 | 0.73 | 0.661 | 1.15 | 1.28 | 1.14 | 1.2 |  | 
LK-2 | 0.355 | 0.216 | 0.275 | 0.252 |  | 0.529 | 0.396 | 0.357 | 0.282 | 0.691 | 0.715 | 0.628 | 0.425 |  |  |  |  | 0.633 | 
NCI-H1650 | 0.919 | 0.934 | 1.09 | 0.744 | 0.403 | 0.358 | 0.353 | 0.348 | 0.287 | 0.836 | 0.805 | 0.822 | 0.754 | 0.198 | 0.18 | 0.183 | 0.229 | 0.73 | 0.845
NCI-H838 | 0.842 | 0.979 | 0.873 | 0.793 | 0.492 | 0.491 | 0.581 | 0.519 | 0.537 | 0.693 | 0.849 | 0.866 | 0.825 | 0.732 | 0.717 | 0.644 | 0.711 | 0.794 | 0.881
EMC-BAC-2 | 0.679 | 0.731 | 0.813 | 0.726 | 0.465 | 0.509 | 0.53 | 0.571 | 0.507 | 0.52 | 0.56 |  | 0.562 | 1.09 | 1.04 | 1.11 | 1.13 | 0.505 | 0.79
SW 1573 | 0.807 | 0.803 | 0.986 | 0.77 | 0.317 | 0.345 | 0.477 | 0.406 | 0.423 | 0.401 | 0.51 | 0.456 | 0.485 | 0.947 | 1.08 | 1.01 | 1.13 | 0.57 | 0.87
CAL-12T | 0.589 | 0.582 | 0.718 | 0.301 | 0.546 | 0.447 | 0.362 | 0.651 | 0.35 | 0.677 | 0.658 | 0.818 | 0.506 | 0.95 | 1.09 | 1.1 | 0.925 | 0.665 | 
NCI-H2009 | 1.04 | 1.08 | 1.11 | 1.1 | 0.558 | 0.476 | 0.518 | 0.476 | 0.499 | 0.671 | 0.771 | 0.802 | 0.738 | 1.01 | 0.994 | 0.897 | 0.956 | 0.754 | 1.04
HARA | 0.913 | 1.03 | 1.08 | 0.883 | 0.445 | 0.377 | 0.357 | 0.406 | 0.331 | 0.712 | 0.778 | 0.763 | 0.384 | 1.08 | 1.12 | 0.853 | 1.11 | 0.96 | 1.16
